Experiments:
green foxtail = test: Test C pre-/postemergence test; assay type: in vivo, Setaria viridis
How it was run: (§1)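 Seeds were planted and treated preemergence with test chemical in a non-phytotoxic solvent mixture containing surfactant. Postemergence applications of the same formulation went onto plants 2 to 18 cm tall (1- to 4-leaf stage). A dash marks no test result.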

johnsongrass = test: Test C pre-/postemergence test; assay type: in vivo, Sorghum halepense
How it was run: as §1

barnyardgrass = test: Test C flooded paddy test; assay type: in vivo, Echinochloa crus-galli; details: Flood
How it was run: (§2)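 In-water treatment: compound dosed into 3 cm flood over soil, water level unchanged throughout. Controls run alongside; visual assessment at day 13–15.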

cocklebur = test: Test C pre-/postemergence test; assay type: in vivo, Xanthium strumarium
How it was run: as §1

soybean = test: Test C pre-/postemergence test; assay type: in vivo, Glycine max
How it was run: as §1

velvetleaf [1] = test: Test C pre-/postemergence test; assay type: in vivo, Abutilon theophrasti
How it was run: as §1

downy brome = test: Test C pre-/postemergence test; assay type: in vivo, Bromus tectorum
How it was run: as §1

Italian ryegrass = test: Test C pre-/postemergence test; assay type: in vivo, Lolium multiflorum; details: for Ryegrass, Italian plant response rating: preemergence, scale 0 (no effect) to 100 (complete control)
How it was run: as §1

wild oat = test: Test C pre-/postemergence test; assay type: in vivo, Avena fatua
How it was run: as §1

morningglory = test: Test C pre-/postemergence test; assay type: in vivo, Ipomoea coccinea
How it was run: as §1

duck salad = test: Test C flooded paddy test; assay type: in vivo, Heteranthera limosa; details: Flood
How it was run: as §2

giant foxtail = test: Test C pre-/postemergence test; assay type: in vivo, Setaria faberii
How it was run: as §1

catchweed bedstraw = test: Test C pre-/postemergence test; assay type: in vivo, Galium aparine
How it was run: as §1

woolly cupgrass = test: Test C pre-/postemergence test; assay type: in vivo, Eriochloa villosa
How it was run: as §1

corn = test: Test C pre-/postemergence test; assay type: in vivo, Zea mays
How it was run: as §1

velvetleaf [2] = test: Test A pre-/postemergence greenhouse test; assay type: in vivo, Abutilon theophrasti; details: for Velvetleaf plant response rating: 0 to 100 scale
How it was run: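 Greenhouse herbicide screen, pre- and postemergence in parallel. Soil: loam plus sand. Formulation: non-phytotoxic solvent mix with surfactant. Postemergence stage: one to two leaves, 2–10 cm height. Evaluation: visual injury, compared with untreated controls, about 10 days after treatment.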

blackgrass = test: Test C pre-/postemergence test; assay type: in vivo, Alopecurus myosuroides
How it was run: as §1

[3] = 62 g ai/ha, Preemergence, scale 0 to 100
[4] = 125 g ai/ha, preemergence, scale 0 (no effect) to 100 (complete control)
[5] = Preemergence, 31 g ai/ha, scale 0 to 100 (0 no effect, 100 complete control)
[6] = preemergence, 250 g ai/ha, scale 0 (no effect) to 100 (complete control)
[7] = 62 g ai/ha, scale 0 to 100 (0 no effect, 100 complete control)
[8] = 250 g ai/ha, scale 0 to 100, 0 no effect, 100 complete control, 13 to 15 days

CCc1cc[n+]([O-])c([S+]([O-])Cc2c(C(F)(F)F)nn(C)c2OC(F)F)c1 (stereo not drawn) [Compound 101]
Foxtail, Green plant response rating (green foxtail; [3]): 95
Foxtail, Green plant response rating (green foxtail; [4]): 98
Plant response rating, Foxtail, Green (green foxtail; [5]): 85
Foxtail, Green plant response rating (green foxtail; [6]): 100
Johnsongrass plant response rating (johnsongrass; [3]): 85
Johnsongrass plant response rating (johnsongrass; [4]): 95
Plant response rating, Johnsongrass (johnsongrass; [5]): 70
Johnsongrass plant response rating (johnsongrass; [6]): 100
Plant response rating, Barnyardgrass (barnyardgrass; [7]): 0
Plant response rating, Barnyardgrass (barnyardgrass; [8]): 70
Cocklebur plant response rating (cocklebur; [3]): 0
Cocklebur plant response rating (cocklebur; [4]): 10
Plant response rating, Cocklebur (cocklebur; [5]): 0
Cocklebur plant response rating (cocklebur; [6]): 15
Soybean plant response rating (soybean; [3]): 60
Soybean plant response rating (soybean; [4]): 75
Plant response rating, Soybean (soybean; [5]): 0
Soybean plant response rating (soybean; [6]): 85
Velvetleaf plant response rating (velvetleaf [1]; [3]): 30
Velvetleaf plant response rating (velvetleaf [1]; [4]): 40
Plant response rating, Velvetleaf (velvetleaf [1]; [5]): 0
Velvetleaf plant response rating (velvetleaf [1]; [6]): 95
Bromegrass, Downy plant response rating (downy brome; [3]): 45
Bromegrass, Downy plant response rating (downy brome; [4]): 90
Plant response rating, Bromegrass, Downy (downy brome; [5]): 40
Bromegrass, Downy plant response rating (downy brome; [6]): 100
Ryegrass, Italian plant response rating (Italian ryegrass; 125 g ai/ha): 0
Plant response rating, Ryegrass, Italian (Italian ryegrass; [5]): 0
Ryegrass, Italian plant response rating (Italian ryegrass; 250 g ai/ha): 60
Oat, Wild plant response rating (wild oat; [3]): 90
Oat, Wild plant response rating (wild oat; [4]): 90
Plant response rating, Oat, Wild (wild oat; [5]): 50
Oat, Wild plant response rating (wild oat; [6]): 98
Morningglory plant response rating (morningglory; [3]): 60
Morningglory plant response rating (morningglory; [4]): 100
Plant response rating, Morningglory (morningglory; [5]): 20
Morningglory plant response rating (morningglory; [6]): 100
Plant response rating, Ducksalad (duck salad; [7]): 0
Plant response rating, Ducksalad (duck salad; [8]): 80
Foxtail, Giant plant response rating (giant foxtail; [3]): 80
Foxtail, Giant plant response rating (giant foxtail; [4]): 95
Plant response rating, Foxtail, Giant (giant foxtail; [5]): 70
Foxtail, Giant plant response rating (giant foxtail; [6]): 98
Galium plant response rating (catchweed bedstraw; [3]): 50
Galium plant response rating (catchweed bedstraw; [4]): 98
Plant response rating, Galium (catchweed bedstraw; [5]): 0
Galium plant response rating (catchweed bedstraw; [6]): 100
Cupgrass, Woolly plant response rating (woolly cupgrass; [3]): 80
Cupgrass, Woolly plant response rating (woolly cupgrass; [4]): 85
Plant response rating, Cupgrass, Woolly (woolly cupgrass; [5]): 40
Cupgrass, Woolly plant response rating (woolly cupgrass; [6]): 95
Corn plant response rating (corn; [3]): 75
Corn plant response rating (corn; [4]): 90
Plant response rating, Corn (corn; [5]): 40
Corn plant response rating (corn; [6]): 98
Plant response rating, Velvetleaf (velvetleaf [2]; Postemergence, 125 g ai/ha, 0 to 100 scale where 0 is no effect and 100 is complete control): 70
Velvetleaf plant response rating (velvetleaf [2]; Postemergence, 500 g ai/ha, 0 is no effect, 100 is complete control): 90
Velvetleaf plant response rating (velvetleaf [2]; Preemergence, 125 g ai/ha, 0 no effect, 100 complete control): 80
Velvetleaf plant response rating (velvetleaf [2]; Preemergence, 500 g ai/ha, 0 no effect, 100 complete control): 100
Blackgrass plant response rating (blackgrass; [3]): 30
Blackgrass plant response rating (blackgrass; [4]): 70
Plant response rating, Blackgrass (blackgrass; [5]): 0
Blackgrass plant response rating (blackgrass; [6]): 90
